Test results taken from PubChem BioAssay (NCI).
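Protocol summary: plate cells (96-well), add compound at 5 concentrations, incubate 48 h, interpolate endpoints linearly. TGI denotes the concentration required for complete inhibition of growth.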

Columns and labels:
Assay in all cases: growth of human tumour cells (NCI), 48 h
[1] = system: SK-MEL-5 melanoma
[2] = system: TK-10 renal
[3] = system: U251 CNS
[4] = system: CAKI-1 renal
[5] = system: SW-620 colon
[6] = system: T-47D breast
[7] = system: UO-31 renal
[8] = system: UACC-257 melanoma
[9] = system: A498 renal
[10] = system: M14 melanoma
[11] = system: HCT-15 colon
[12] = system: RPMI-8226 leukemia
[13] = system: SF-295 CNS
[14] = system: RXF 393 renal
[15] = system: HS 578T breast
[16] = system: COLO 205 colon
[17] = system: 786-0 renal
[18] = system: HCT-116 colon
[19] = system: OVCAR-8 ovarian
[20] = system: HOP-92 NSCLC
[21] = system: MDA-MB-435
[22] = system: MCF7 breast
[23] = system: EKVX NSCLC
[24] = system: SNB-75 CNS
[25] = system: PC-3 prostate
[26] = system: A549 NSCLC
[27] = system: SF-268 CNS
[28] = system: NCI-H460 lung
[29] = system: MDA-MB-231 breast
[30] = system: SK-MEL-2 melanoma
[31] = system: NCI-H23 lung
[32] = system: NCI-H226 lung
[33] = system: OVCAR-3 ovarian
[34] = system: KM12 colon
[35] = system: IGROV1 ovarian
[36] = system: HOP-62 NSCLC
[37] = system: OVCAR-5 ovarian
[38] = system: SF-539 CNS
[39] = system: OVCAR-4 ovarian
[40] = system: SK-OV-3 ovarian
[41] = system: DU-145 prostate
[42] = system: K-562 leukemia
[43] = system: NCI/ADR-RES ovarian
[44] = system: MALME-3M melanoma
[45] = system: UACC-62 melanoma
[46] = system: SNB-19 CNS
[47] = system: BT-549 breast
[48] = system: ACHN renal
[49] = system: SR leukemia
[50] = system: MDA-N
[51] = system: HCC-2998 colon
[52] = system: HT29 colon
[53] = system: SN12C renal
[54] = system: NCI-H522 lung
[55] = system: SK-MEL-28 melanoma
[56] = system: CCRF-CEM leukemia
[57] = system: LOX IMVI melanoma
[58] = system: HL-60(TB) leukemia

NC(CSc1nc2ccccn2c1[N+](=O)[O-])C(=O)O (stereo not given)
TGI [1]: > 100 µM | TGI [2]: > 100 µM | TGI [3]: > 100 µM | TGI [4]: > 100 µM | TGI [5]: > 100 µM | TGI [6]: > 100 µM | TGI [7]: 8.54 µM | TGI [8]: > 100 µM | TGI [9]: > 100 µM | TGI [10]: > 100 µM | TGI [11]: > 100 µM | TGI [12]: > 100 µM | TGI [13]: > 100 µM | TGI [14]: > 100 µM | TGI [15]: > 100 µM | TGI [16]: > 100 µM | TGI [17]: > 100 µM | TGI [18]: > 100 µM | TGI [19]: > 100 µM | TGI [20]: > 100 µM | TGI [21]: > 100 µM | TGI [22]: > 100 µM | TGI [23]: > 100 µM | TGI [24]: > 100 µM | TGI [25]: > 100 µM | TGI [26]: > 100 µM | TGI [27]: > 100 µM | TGI [28]: > 100 µM | TGI [29]: > 100 µM | TGI [30]: > 100 µM | TGI [31]: > 100 µM | TGI [32]: > 100 µM | TGI [33]: > 100 µM | TGI [34]: > 100 µM | TGI [35]: > 100 µM | TGI [36]: > 100 µM | TGI [37]: > 100 µM | TGI [38]: > 100 µM | TGI [39]: > 100 µM | TGI [40]: > 100 µM | TGI [41]: > 100 µM | TGI [42]: > 100 µM | TGI [43]: > 100 µM | TGI [44]: > 100 µM | TGI [45]: > 100 µM | TGI [46]: > 100 µM | TGI [47]: > 100 µM | TGI [48]: > 100 µM | TGI [49]: > 100 µM | TGI [50]: > 100 µM | TGI [51]: > 100 µM | TGI [52]: > 100 µM | TGI [53]: > 100 µM | TGI [54]: > 100 µM | TGI [55]: > 100 µM

OCCNc1ncnc2c1ncn2C1OC(CO)C(O)C1O (stereo not given)
TGI [1]: > 100 µM | TGI [2]: > 100 µM | TGI [3]: > 100 µM | TGI [4]: > 100 µM | TGI [5]: > 100 µM | TGI [6]: > 100 µM | TGI [7]: > 100 µM | TGI [8]: > 100 µM | TGI [9]: > 100 µM | TGI [10]: > 100 µM | TGI [11]: > 100 µM | TGI [12]: > 100 µM | TGI [13]: > 100 µM | TGI [14]: > 100 µM | TGI [15]: > 100 µM | TGI [16]: > 100 µM | TGI [17]: > 100 µM | TGI [18]: > 100 µM | TGI [19]: > 100 µM | TGI [20]: > 100 µM | TGI [21]: > 100 µM | TGI [22]: > 100 µM | TGI [23]: > 100 µM | TGI [24]: > 100 µM | TGI [25]: > 100 µM | TGI [26]: > 100 µM | TGI [27]: > 100 µM | TGI [28]: > 100 µM | TGI [29]: 89.4 µM | TGI [30]: > 100 µM | TGI [31]: > 100 µM | TGI [33]: > 100 µM | TGI [34]: > 100 µM | TGI [35]: > 100 µM | TGI [36]: > 100 µM | TGI [37]: > 100 µM | TGI [38]: > 100 µM | TGI [39]: > 100 µM | TGI [40]: > 100 µM | TGI [41]: 67.7 µM | TGI [56]: > 100 µM | TGI [43]: > 100 µM | TGI [44]: > 100 µM | TGI [57]: > 100 µM | TGI [45]: > 100 µM | TGI [46]: > 100 µM | TGI [47]: > 100 µM | TGI [48]: > 100 µM | TGI [50]: > 100 µM | TGI [51]: > 100 µM | TGI [52]: > 100 µM | TGI [58]: > 100 µM | TGI [53]: > 100 µM | TGI [54]: > 100 µM | TGI [55]: > 100 µM
